Source: article PMC8398059, “Peptoids with Antibiofilm Activity against the Gram Negative Obligate Anaerobe, Fusobacterium nucleatum” (Molecules, 2021)
Non-standard residues stand in square brackets, D forms with d. Residues, ends and D or L forms follow the SMILES beside them. Gly(N-(CH2)6NH2) = NCCCCCCNCC(=O)O; Gly(N-2-aminoethyl) = NCCNCC(=O)O; Nspe = C[C@H](NCC(=O)O)c1ccccc1; Nphe = O=C(O)CNCc1ccccc1; Nlys = NCCCCNCC(=O)O

Columns and labels:
Format in all cases: cell-based
human erythrocytes = assay: Haemolytic assay; conditions: peptoid 100 µM, 37 °C, 1 h, absorbance 450 nm; positive control 1% Triton x-100; n = 3 independent experiments, 3 replicates each
Procedure: The haemolytic assay was employed to determine the potential cytotoxicity of the peptoids against human red blood cells. Blood samples were collected with ethical approval and informed consent in vacutainer containers with dipotassium ethylene- diaminetetraacetic acid (K2-EDTA). Blood was then transferred to a 50 mL tube and centrifuged at 1200× g for 5 min at room temperature. The supernatant was removed and PBS was added to the original volume of sample obtained. This step was repeated a further 3 times. The red blood cells were then diluted to 8% of their original volume for use in the haemolytic assay. A 1% solution of Triton x-100 in PBS served as a positive control, and PBS was used as a negative control.
Peptoids 1, 2, 3, 4, 5, 6, 7, 8 and 9 were diluted in PBS to 200 µM. A total volume of 100 µL of each peptoid was placed in the wells of a v-bottomed 96-well microtitre plate. Red blood cells (100 µL), prepared as outlined above, were then added. The final peptoid concentration in each well was therefore 100 µM. The plate was sealed with an adhesive film to prevent evaporation and incubated at 37 °C for 1 h. Following this time, the plate was centrifuged at 4000 RPM for 5 min to pellet unlysed red blood cells. Following this step, 100 µL of supernatant was carefully removed from each well and added to a flat-bottomed 96-well microtitre plate. The absorbance was read at 450 nm using a Tecan Genios (Männedorf, Switzerland) plate reader, and the percentage of red blood cells lysed was calculated.

[1] = test system: human primary gingival fibroblasts; assay: MTT cell viability assay; conditions: peptoid 1 µM, 24 h, 37 °C; n = 3 independent experiments, 6 replicates each
Procedure: Cultured primary gingival fibroblast cells were obtained with ethical approval and informed consent, and were grown as previously described. Cells were seeded in 96-well plates at a concentration of 1 × 10^5 cells/mL (100 µL per well). Plates were incubated at 37 °C for 48 h to allow cells to reach confluence. Peptoids 1, 3, 4, 5, 6, 7 and 9 were diluted to 200 µM, 20 µM and 2 µM. The culture medium was removed and replaced with 50 µL of Dulbecco’s Modified Eagle’s Medium (DMEM) and 50 µL of the relevant peptoid. The cells were incubated for 24 h at 37 °C. After this time, 10 µL of 3-(4, 5- dimethylthiazol-2-yl)-2,5-diphenyltetrazolium bromide (MTT) reagent (Sigma-Aldrich, Poole, UK) was added to each well and the plate was incubated for a further 3 h at 37 °C. The medium was removed by aspiration and the wells were allowed to dry for 20 min. Then, 200 µL of dimethyl sulfoxide (DMSO) (Sigma-Aldrich, Poole, UK) was added to all wells and the plate was placed in an incubator for 30 min. The absorbance of the wells was read in a Tecan Genios (Männedorf, Switzerland) plate reader at 510 nm after 60 s of orbital shaking.

[2] = test system: Fusobacterium nucleatum biofilm; assay: Biofilm inhibition assay with PMA-qPCR; conditions: strain NCTC 10562, anaerobic, 96-well plate, 48 h with peptoid + 48 h maturation, n = 3 independent experiments
Procedure: The F. nucleatum type strain (NCTC 10562, originally isolated from human, inflamed gingival tissue) was obtained from the National Collection of Type Cultures. The optical density (OD) of an overnight culture was measured spectrophotometrically at 570 nm and diluted with fresh broth to an OD of 0.30–0.35. The culture was further diluted 1 in 50 with anaerobic broth, giving a final inoculum concentration of approximately 5 × 10^6 CFU/mL. A biofilm inhibition assay was undertaken in a 96-well plate format. Peptoids 4 and 9 were added along with the inoculum (90 µL of inoculum in broth and 10 µL of peptoid solution) to each well, to yield peptoid concentrations of 1 µM and 10 µM. A solution containing 10 µL of PBS and 90 µL of anaerobic broth acted as an untreated control. Biofilms were allowed to develop in the presence of peptoids 4 or 9 for 48 h. After 48 h biofilm development, planktonic cells were removed by gently washing three times with PBS and then replacing the broth with 100 µL of fresh anaerobic broth prior to a further 48 h incubation for biofilm maturation. After this time, the wells were gently washed three times with 100 µL of PBS to remove planktonic cells. Plates were then sealed with parafilm, and the biofilms were dislodged from the wells in an ultrasonic bath for 20 min. Plates were then returned to the anaerobic cabinet and the dislodged biofilm samples were collected in Eppendorf tubes.
Propidium monoazide (PMA)-qPCR was undertaken essentially as previously described. Briefly, PMA (Biotium, Fremont, CA, USA), was diluted 1 in 50 with PBS. The diluted PMA was then added to the dislodged biofilm samples in a 1:1 ratio in an Eppendorf tube, to give a final PMA concentration of 200 µM. The Eppendorfs were incubated at 37 °C for 10 min in the dark and then placed under a broad spectrum LED floodlight (ELRD, HL60 ^0 LEDx Max 0.1V) for 10 min. During this time, the Eppendorfs were inverted several times. Bacterial DNA was then extracted using the Qiagen blood and tissue kit (Germantown, MD, USA) according to the manufacturer’s instructions. Briefly, bacterial samples released from biofilms were centrifuged at 14000 RPM for 6 min, and the supernatant was removed. Bacterial pellets were resuspended in 200 µL of AL buffer, and 25 µL of proteinase K was added to each Eppendorf. The suspensions were then heated to 56 °C for 30 min with shaking. Following this, 200 µL of ethanol was added to each Eppendorf and mixed gently. The contents were placed in fresh spin columns in 2 mL collection tubes. The spin columns were centrifuged at 8000 RPM for 2 min. The flow-through and the collection tubes were discarded. The spin columns were placed in fresh collection tubes, and 500 µL of AW1 buffer was added to each column. […]

SMILES | Percentage lysis of human erythrocytes (human erythrocytes) | Viability of gingival fibroblasts (MTT) vs untreated controls [1] | F. nucleatum biofilm formation (live cell numbers by PMA-qPCR) ([2]; peptoid 1 µM) | F. nucleatum biofilm formation (live cell numbers by PMA-qPCR) ([2]; peptoid 10 µM)
NCCCCNCC(=O)N(CC(=O)N(CC(=O)N(CCCCN)CC(=O)N(CC(=O)N(CC(=O)N(CCCCN)CC(=O)N(CC(=O)N(CC(=O)N(CCCCN)CC(=O)N(CC(=O)N(CC(N)=O)Cc1ccccc1)Cc1ccccc1)Cc1ccccc1)Cc1ccccc1)Cc1ccccc1)Cc1ccccc1)Cc1ccccc1)Cc1ccccc1 [Peptoid 1] (H-[Nlys][Nphe][Nphe][Nlys][Nphe][Nphe][Nlys][Nphe][Nphe][Nlys][Nphe][Nphe]-NH2; N-terminus assumed) | ≥ 10% | – | – | –
C[C@@H](c1ccccc1)N(CC(N)=O)C(=O)CN(C(=O)CN(CCCCN)C(=O)CN(C(=O)CN(C(=O)CN(CCCCN)C(=O)CN(C(=O)CN(C(=O)CNCCCCN)[C@@H](C)c1ccccc1)[C@@H](C)c1ccccc1)[C@@H](C)c1ccccc1)[C@@H](C)c1ccccc1)[C@@H](C)c1ccccc1 [Peptoid 3] (H-[Nlys][Nspe][Nspe][Nlys][Nspe][Nspe][Nlys][Nspe][Nspe]-NH2; N-terminus assumed) | ≥ 10% | – | – | –
NCCNCC(=O)N(CC(=O)N(CC(=O)N(CCN)CC(=O)N(CC(=O)N(CC(=O)N(CCN)CC(=O)N(CC(=O)N(CC(=O)N(CCN)CC(=O)N(CC(=O)N(CC(N)=O)Cc1ccccc1)Cc1ccccc1)Cc1ccccc1)Cc1ccccc1)Cc1ccccc1)Cc1ccccc1)Cc1ccccc1)Cc1ccccc1 [Peptoid 4, (NaeNpheNphe)4-NH2] (H-[Gly(N-2-aminoethyl)][Nphe][Nphe][Gly(N-2-aminoethyl)][Nphe][Nphe][Gly(N-2-aminoethyl)][Nphe][Nphe][Gly(N-2-aminoethyl)][Nphe][Nphe]-NH2; N-terminus assumed) | ≥ 10% | not to alter gingival fibroblast viability | statistically significant reduction in biofilm formation | statistically significant reduction in biofilm formation
C[C@@H](c1ccccc1)N(CC(N)=O)C(=O)CN(C(=O)CN(CCN)C(=O)CN(C(=O)CN(C(=O)CN(CCN)C(=O)CN(C(=O)CN(C(=O)CNCCN)[C@@H](C)c1ccccc1)[C@@H](C)c1ccccc1)[C@@H](C)c1ccccc1)[C@@H](C)c1ccccc1)[C@@H](C)c1ccccc1 [Peptoid 5] (H-[Gly(N-2-aminoethyl)][Nspe][Nspe][Gly(N-2-aminoethyl)][Nspe][Nspe][Gly(N-2-aminoethyl)][Nspe][Nspe]-NH2; N-terminus assumed) | ≥ 10% | – | – | –
NCCCCCCNCC(=O)N(CC(=O)N(CC(=O)N(CCCCCCN)CC(=O)N(CC(=O)N(CC(=O)N(CCCCCCN)CC(=O)N(CC(=O)N(CC(=O)N(CCCCCCN)CC(=O)N(CC(=O)N(CC(N)=O)Cc1ccccc1)Cc1ccccc1)Cc1ccccc1)Cc1ccccc1)Cc1ccccc1)Cc1ccccc1)Cc1ccccc1)Cc1ccccc1 [Peptoid 6] (H-[Gly(N-(CH2)6NH2)][Nphe][Nphe][Gly(N-(CH2)6NH2)][Nphe][Nphe][Gly(N-(CH2)6NH2)][Nphe][Nphe][Gly(N-(CH2)6NH2)][Nphe][Nphe]-NH2; N-terminus assumed) | less than 5% | – | – | –
NCCCCCCNCC(=O)N(CC(=O)N(CC(=O)N(CCCCCCN)CC(=O)N(CC(=O)N(CC(=O)N(CCCCCCN)CC(=O)N(CC(=O)N(CC(N)=O)Cc1ccccc1)Cc1ccccc1)Cc1ccccc1)Cc1ccccc1)Cc1ccccc1)Cc1ccccc1 [Peptoid 7] (H-[Gly(N-(CH2)6NH2)][Nphe][Nphe][Gly(N-(CH2)6NH2)][Nphe][Nphe][Gly(N-(CH2)6NH2)][Nphe][Nphe]-NH2; N-terminus assumed) | less than 5% | – | – | –
C[C@@H](c1ccccc1)N(CC(N)=O)C(=O)CN(C(=O)CN(CCCCCCN)C(=O)CN(C(=O)CN(C(=O)CN(CCCCCCN)C(=O)CN(C(=O)CN(C(=O)CNCCCCCCN)[C@@H](C)c1ccccc1)[C@@H](C)c1ccccc1)[C@@H](C)c1ccccc1)[C@@H](C)c1ccccc1)[C@@H](C)c1ccccc1 [Peptoid 9, (NahNspeNspe)3-NH2] (H-[Gly(N-(CH2)6NH2)][Nspe][Nspe][Gly(N-(CH2)6NH2)][Nspe][Nspe][Gly(N-(CH2)6NH2)][Nspe][Nspe]-NH2; N-terminus assumed) | less than 5% | not to alter gingival fibroblast viability | statistically significant reduction in biofilm formation | statistically significant reduction in biofilm formation
